Measurements as given in ChEMBL document CHEMBL4808202, “Evaluation of artemisinin derivative artemether as a fluconazole potentiator through inhibition of Pdr5” (2021).
Active and inactive are the calls of the source. The rule behind the calls is not given here.

What was measured:
[1] = system: Candida albicans; assay: Antifungal activity against Candida albicans SC5314 assessed as inhibition of fungal growth by measuring decrease in OD600 at 100 microM measured after 24 hrs by absorbance based analysis; format: functional
[2] = system: Candida albicans; assay: Potentiation of amphotericin B-induced antifungal activity against Candida albicans SC5314 assessed as fungal growth at 100 microM measured after 24 hrs in presence of amphotericin B by absorbance based analysis relative to amphotericin B-treated control; format: functional
[3] = system: Candida albicans; assay: Potentiation of micafungin-induced antifungal activity against Candida albicans SC5314 assessed as fungal growth at 100 microM measured after 24 hrs in presence of micafungin by absorbance based analysis relative to micafungin-treated control; format: functional
[4] = system: Candida albicans; assay: Potentiation of fluconazole-induced antifungal activity against Candida albicans SC5314 assessed as fungal growth at 100 microM measured after 24 hrs in presence of fluconazole by absorbance based analysis relative to fluconazole-treated control; format: functional
[5] = system: Candida albicans; assay: Antifungal activity against Candida albicans SC5314 assessed as inhibition of fungal filamentation in YEPD containing 10% serum medium at 100 uM incubated for 1 hr by microscopic analysis; format: functional, organism-based
[6] = system: Candida albicans; assay: Antifungal activity against Candida albicans SC5314 assessed as inhibition of fungal filamentation in Spider medium at 100 uM incubated for 1 hr by microscopic analysis; format: functional, organism-based
[7] = system: Candida albicans; assay: Potentiation of fluconazole-induced antifungal activity against Candida albicans SC5314 assessed as inhibition of fungal filamentation by measuring reduction in fungal hyphae growth in YEPD containing 10% serum medium at 100 uM incubated for 1 hr in presence of fluconazole by microscopic analysis; format: functional, organism-based
[8] = system: Candida albicans; assay: Potentiation of fluconazole-induced antifungal activity against Candida albicans SC5314 assessed as inhibition of fungal filamentation by measuring reduction in fungal hyphae growth in Spider medium at 100 uM incubated for 1 hr in presence of fluconazole by microscopic analysis; format: functional, organism-based
[9] = system: Candida albicans; assay: Antifungal activity against fluconazole-resistant Candida albicans CNL011 assessed as fungal growth at 100 uM measured after 24 hrs by absorbance based analysis relative to vehicle-treated control; format: functional
[10] = system: Candida albicans; assay: Antifungal activity against fluconazole-resistant Candida albicans CNL012 assessed as fungal growth at 100 uM measured after 24 hrs by absorbance based analysis relative to vehicle-treated control; format: functional
[11] = system: Candida albicans; assay: Recovery of fluconazole susceptibility against fluconazole-resistant Candida albicans CNL011 assessed as inhibition of fungal growth at 100 uM measured every 15 mins for 24 hrs by absorbance based analysis; format: functional, organism-based
[12] = system: Candida albicans; assay: Recovery of fluconazole susceptibility against fluconazole-resistant Candida albicans CNL012 assessed as inhibition of fungal growth at 100 uM measured every 15 mins for 24 hrs by absorbance based analysis; format: functional, organism-based
[13] = system: [Candida] auris; assay: Antifungal activity against Candida auris NL002 assessed as fungal growth at 100 uM measured after 24 hrs by absorbance based analysis relative to vehicle-treated control; format: functional, Candidozyma auris
[14] = system: Candida tropicalis; assay: Antifungal activity against Candida tropicalis NL001 assessed as fungal growth at 100 uM measured after 24 hrs by absorbance based analysis relative to vehicle-treated control; format: functional
[15] = system: Candida parapsilosis; assay: Antifungal activity against Candida parapsilosis NL001 assessed as fungal growth at 100 uM measured after 24 hrs by absorbance based analysis relative to vehicle-treated control; format: functional
[16] = system: Saccharomyces cerevisiae; assay: Antifungal activity against Saccharomyces cerevisiae BY4742 assessed as inhibition of fungal growth at 100 uM measured after 24 hrs by absorbance based analysis relative to vehicle-treated control; format: functional
[17] = system: [Candida] auris; assay: Potentiation of fluconazole-induced antifungal activity against Candida auris NL002 assessed as fungal growth at 100 uM measured after 24 hrs in presence of fluconazole by absorbance based analysis relative to vehicle-treated control; format: functional, Candidozyma auris
[18] = system: Candida tropicalis; assay: Potentiation of fluconazole-induced antifungal activity against Candida tropicalis NL001 assessed as fungal growth at 100 uM measured after 24 hrs in presence of fluconazole by absorbance based analysis relative to vehicle treated control; format: functional
[19] = system: Candida parapsilosis; assay: Potentiation of fluconazole-induced antifungal activity against Candida parapsilosis NL001 assessed as fungal growth at 100 uM measured after 24 hrs in presence of fluconazole by absorbance based analysis relative to vehicle-treated control; format: functional
[20] = system: [Candida] auris; assay: Potentiation of fluconazole-induced antifungal activity against Candida auris NL002 assessed as fungal growth at 100 uM measured after 24 hrs in presence of fluconazole by absorbance based analysis relative to fluconazole-treated control; format: functional, Candidozyma auris
[21] = system: Candida tropicalis; assay: Potentiation of fluconazole-induced antifungal activity against Candida tropicalis NL001 assessed as fungal growth at 100 uM measured after 24 hrs in presence of fluconazole by absorbance based analysis relative to fluconazole-treated control; format: functional
[22] = system: Candida parapsilosis; assay: Potentiation of fluconazole-induced antifungal activity against Candida parapsilosis NL001 assessed as fungal growth at 100 uM measured after 24 hrs in presence of fluconazole by absorbance based analysis relative to fluconazole-treated control; format: functional
[23] = system: Saccharomyces cerevisiae; assay: Potentiation of fluconazole-induced antifungal activity against Saccharomyces cerevisiae BY4742 assessed as inhibition of fungal growth at 100 uM measured after 24 hrs in presence of fluconazole by absorbance based analysis relative to fluconazole-treated control; format: functional
[24] = system: Cryptococcus neoformans; assay: Antifungal activity against Cryptococcus neoformans H99 assessed as inhibition of fungal growth at 0.2 uM measured every 15 mins for 24 hrs by absorbance based analysis; format: functional, organism-based
[25] = system: Cryptococcus neoformans; assay: Potentiation of fluconazole-induced antifungal activity against Cryptococcus neoformans H99 assessed as inhibition of fungal growth at 0.2 uM measured every 15 mins for 24 hrs in presence of fluconazole by absorbance based analysis; format: functional, organism-based
[26] = system: Saccharomyces cerevisiae; assay: Antifungal activity against Saccharomyces cerevisiae BY4742 assessed as fungal growth at 1600 uM measured after 24 hrs by absorbance based analysis relative to control; format: functional
[27] = system: Saccharomyces cerevisiae; assay: Antifungal activity against Saccharomyces cerevisiae harboring adp1 delta mutant assessed as fungal growth at 1600 uM measured after 24 hrs by absorbance based analysis relative to control; format: functional
[28] = system: Saccharomyces cerevisiae; assay: Antifungal activity against Saccharomyces cerevisiae harboring aus1 delta mutant assessed as fungal growth at 1600 uM measured after 24 hrs by absorbance based analysis relative to control; format: functional
[29] = system: Saccharomyces cerevisiae; assay: Antifungal activity against Saccharomyces cerevisiae harboring bpt1 delta mutant assessed as fungal growth at 1600 uM measured after 24 hrs by absorbance based analysis relative to control; format: functional
[30] = system: Saccharomyces cerevisiae; assay: Antifungal activity against Saccharomyces cerevisiae harboring nft1 delta mutant assessed as fungal growth at 1600 uM measured after 24 hrs by absorbance based analysis relative to control; format: functional
[31] = system: Saccharomyces cerevisiae; assay: Antifungal activity against Saccharomyces cerevisiae harboring pdr5 delta mutant assessed as fungal growth at 1600 uM measured after 24 hrs by absorbance based analysis relative to control; format: functional
[32] = system: Saccharomyces cerevisiae; assay: Antifungal activity against Saccharomyces cerevisiae harboring pdr10 delta mutant assessed as fungal growth at 1600 uM measured after 24 hrs by absorbance based analysis relative to control; format: functional
[33] = system: Saccharomyces cerevisiae; assay: Antifungal activity against Saccharomyces cerevisiae harboring pdr11 delta mutant assessed as fungal growth at 1600 uM measured after 24 hrs by absorbance based analysis relative to control; format: functional
[34] = system: Saccharomyces cerevisiae; assay: Antifungal activity against Saccharomyces cerevisiae harboring pdr12 delta mutant assessed as fungal growth at 1600 uM measured after 24 hrs by absorbance based analysis relative to control; format: functional
[35] = system: Saccharomyces cerevisiae; assay: Antifungal activity against Saccharomyces cerevisiae harboring pdr15 delta mutant assessed as fungal growth at 1600 uM measured after 24 hrs by absorbance based analysis relative to control; format: functional
[36] = system: Saccharomyces cerevisiae; assay: Antifungal activity against Saccharomyces cerevisiae harboring snq2 delta mutant assessed as fungal growth at 1600 uM measured after 24 hrs by absorbance based analysis relative to control; format: functional
[37] = system: Saccharomyces cerevisiae; assay: Antifungal activity against Saccharomyces cerevisiae harboring vmr1 delta mutant assessed as fungal growth at 1600 uM measured after 24 hrs by absorbance based analysis relative to control; format: functional
[38] = system: Saccharomyces cerevisiae; assay: Antifungal activity against Saccharomyces cerevisiae harboring ybt1 delta mutant assessed as fungal growth at 1600 uM measured after 24 hrs by absorbance based analysis relative to control; format: functional
[39] = system: Saccharomyces cerevisiae; assay: Antifungal activity against Saccharomyces cerevisiae harboring ycf1 delta mutant assessed as fungal growth at 1600 uM measured after 24 hrs by absorbance based analysis relative to control; format: functional
[40] = system: Saccharomyces cerevisiae; assay: Antifungal activity against Saccharomyces cerevisiae harboring ynr070w delta mutant assessed as fungal growth at 1600 uM measured after 24 hrs by absorbance based analysis relative to control; format: functional
[41] = system: Saccharomyces cerevisiae; assay: Antifungal activity against Saccharomyces cerevisiae harboring yol075c delta mutant assessed as fungal growth at 1600 uM measured after 24 hrs by absorbance based analysis relative to control; format: functional
[42] = system: Saccharomyces cerevisiae; assay: Antifungal activity against Saccharomyces cerevisiae harboring yor1 delta mutant assessed as fungal growth at 1600 uM measured after 24 hrs by absorbance based analysis relative to control; format: functional
[43] = system: Saccharomyces cerevisiae; assay: Potentiation of fluconazole-induced antifungal activity against Saccharomyces cerevisiae BY4741 assessed as fungal growth at 100 uM measured after 24 hrs by absorbance based analysis relative to fluconazole-treated control; format: functional
[44] = system: Saccharomyces cerevisiae; assay: Potentiation of fluconazole-induced antifungal activity against Saccharomyces cerevisiae YNL033 overexpressing PDR5 assessed as fungal growth at 100 uM measured after 24 hrs by absorbance based analysis relative to fluconazole-treated control; format: functional
[45] = system: Candida albicans; assay: Potentiation of fluconazole-induced antifungal activity against Candida albicans CNL002 harboring cdr1 delta mutant assessed as inhibition of fungal growth at 100 uM measured after 24 hrs by absorbance based analysis; format: functional, organism-based
[46] = system: Saccharomyces cerevisiae; assay: Inhibition of PDR5 in Saccharomyces cerevisiae BY4742 assessed as inhibition of R6G efflux incubated for 4 hrs followed by R6G addition and measured after 1.5 hrs by fluorescence based analysis; details: dose 100-400 µM, time 5.5 hrs
[47] = system: Saccharomyces cerevisiae; assay: Inhibition of PDR5 in Saccharomyces cerevisiae BY4742 assessed as inhibition of R6G efflux at 400 uM incubated for 4 hrs followed by R6G addition and measured after 1.5 hrs by fluorescence based analysis; details: time 5.5 hrs
[48] = system: Saccharomyces cerevisiae BY4741; assay: Inhibition of PDR5 in Saccharomyces cerevisiae BY4741 assessed as intracellular accumulation of fluconazole at 400 uM measured per gm of cells after 4 hrs by HPLC analysis (reference value: 11.3 nmol); format: cell-based
[49] = system: Saccharomyces cerevisiae; assay: Increase in intracellular fluconazole accumulation in Saccharomyces cerevisiae YNL032 harboring pdr5 deletion mutant at 400 uM measured after 4 hrs by HPLC analysis; format: functional, cell-based
[50] = system: Saccharomyces cerevisiae; assay: Antifungal activity against Saccharomyces cerevisiae YNL013 harboring pdr5 delta mutant assessed as inhibition of fungal growth at 100 uM measured after 24 hrs by absorbance based analysis; format: functional, organism-based

## C[C@@H]1CC[C@H]2[C@@H](C)C(=O)O[C@@H]3O[C@@]4(C)CC[C@@H]1[C@]32OO4 [ARTEMISININ]
[1]
  inhibition at 100 µM: 4.9%
[2]
  Activity: 96.1%
[3]
  Activity: 97.7%
[4]
  Activity: 22.6%
[5]
  Activity: inactive
[6]
  Activity: inactive
[7]
  Activity: Active
[8]
  Activity: Active

## C[C@H]1[C@H](OC(=O)CCC(=O)O)O[C@@H]2O[C@@]3(C)CC[C@H]4[C@H](C)CC[C@@H]1[C@@]24OO3 [ARTESUNATE]
[1]
  Activity: inactive
[3]
  Activity: 96.9%
[4]
  Activity: 42.9%
[5]
  Activity: inactive
[6]
  Activity: inactive
[7]
  Activity: Active
[8]
  Activity: Active

## CO[C@H]1O[C@@H]2O[C@@]3(C)CC[C@H]4[C@H](C)CC[C@@H]([C@H]1C)[C@@]24OO3 [ARTEMETHER]
[1]
  inhibition at 100 µM: 10.1%
[2]
  Activity: 96.1%
[3]
  Activity: 95.2%
[4]
  Activity: 52.6%
[5]
  Activity: inactive
[6]
  Activity: inactive
[7]
  Activity: Active
[8]
  Activity: Active
[9]
  Activity: 86.9%
[10]
  Activity: 91.6%
[11]
  Activity: Active
[12]
  Activity: Active
[13]
  Activity: 57.6%
[14]
  Activity: 88.1%
[15]
  Activity: 68.6%
[16]
  inhibition at 100 µM: 45.8%
[17]
  Activity: 44.7%
[18]
  Activity: 83.3%
[19]
  Activity: 41.5%
[20]
  Activity: 48.4%
[21]
  Activity: 81.9%
[22]
  Activity: 41.5%
[23]
  inhibition at 100 µM: 68.8%
[24]
  Activity: Active
[25]
  Activity: Active
[26]
  Activity: 71.9%
[27]
  Activity: 68%
[28]
  Activity: 71%
[29]
  Activity: 71.8%
[30]
  Activity: 72.3%
[31]
  Activity: 29.8%
[32]
  Activity: 67.1%
[33]
  Activity: 77.8%
[34]
  Activity: 71.2%
[35]
  Activity: 70.2%
[36]
  Activity: 67.5%
[37]
  Activity: 65.6%
[38]
  Activity: 69.2%
[39]
  Activity: 60.3%
[40]
  Activity: 72.7%
[41]
  Activity: 67.9%
[42]
  Activity: 75.4%
[43]
  Activity: 76.5%
[44]
  Activity: 70.9%
[45]
  Activity: Active
[46]
  inhibition: Dose-Dependent Effect
[47]
  inhibition: Active
[48]
  Activity: 13.1 nmol
[49]
  Activity: Active
[50]
  Activity: Active
